Measurements reported in patent publication US20250059182A1, “SOS1 INHIBITORS” (Mirati Therapeutics, Inc., priority 2021, published 2025).

Experiments:
[1] = target: T1, recombinant human SOS1 polypeptide (amino acids 560-1049) (Homo sapiens, UniProt Q07889); assay: HTRF displacement assay: inhibition of labeled tracer binding to SOS1; settings: Table A, Morrison equation for competitive binding
T1 construct: corresponding to amino acids 560-1049, expressed in E. Coli; made in house; host or cells: E. coli
T1 sequence (Q07889 560-1049): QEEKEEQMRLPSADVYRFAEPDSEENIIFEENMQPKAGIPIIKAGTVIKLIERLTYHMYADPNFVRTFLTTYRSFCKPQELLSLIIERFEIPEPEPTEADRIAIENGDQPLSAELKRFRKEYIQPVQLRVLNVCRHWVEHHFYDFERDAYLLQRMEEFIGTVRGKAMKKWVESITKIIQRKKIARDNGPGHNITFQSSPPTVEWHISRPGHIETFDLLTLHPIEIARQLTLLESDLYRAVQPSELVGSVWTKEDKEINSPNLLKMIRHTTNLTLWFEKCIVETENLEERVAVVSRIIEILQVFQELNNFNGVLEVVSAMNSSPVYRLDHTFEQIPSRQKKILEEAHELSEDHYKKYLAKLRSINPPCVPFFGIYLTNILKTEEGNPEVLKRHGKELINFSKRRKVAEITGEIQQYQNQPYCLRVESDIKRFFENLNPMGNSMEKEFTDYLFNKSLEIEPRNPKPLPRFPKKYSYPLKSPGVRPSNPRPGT

pERK in MKN1 cells = assay: pERK inhibition, In-Cell Western (LI-COR Odyssey), MKN1 cells; assay type: cell-based; settings: Homo sapiens, MKN-1, Table B; MKN1 or H358 cells (table does not say which); 0.5-1 hour incubation; read-out: IC50 (nM), pERK inhibition
Description: This Example illustrates that exemplary compounds of the present invention prevent KRas-mediated GTP nucleotide exchange mediated by SOS1 to inhibit KRas activity thereby inhibiting the generation of the downstream effector pERK.
MKN1 cells (15,000/w) or H358 (30,000/w) were seeded in a black clear flat bottom 96-well cell culture plate (Corning, #3904) and incubated at 37° C. overnight. Assay day 1, cells were dosed with compounds of Formula (I) with a 10 μm starting concentration and serially diluted 3× for a total of 9 concentrations. The cells were incubated for approximately 0.5-1 hour with the compounds solubilized in DMSO at 37° C. Cells were immediately fixed by adding 50 μL of 4% formaldehyde to all wells in a fume hood and the plates were incubated for 20 minutes at room temperature. The formaldehyde was discarded from the plates and 150 μL of ice-cold methanol was added to permeabilize the cells for 10 minutes at −20° C. The methanol was discarded from each of the plates and any liquid remaining in the plate by tapping the plate against paper towels. Cells were then blocked with 150 μL of Odyssey blocking buffer (LI-COR Biosciences #927-50010) using 0.05% Tween for 1 hour at room temperature on a shaker. The blocking buffer was discarded and 50 μL of primary antibodies pERK (cell signaling Technology #9101L; Rabbit, 1:500) and GapDH (Millipore #MAB34; Mouse, 1:5000) diluted in Odyssey blocking buffer was added. The plates were incubated overnight at 4° C. on a shaker.
On Assay day 2, the primary antibody solution was removed. Each plate was washed 3× times with 150 μL of 1×PBST (PBS+0.1% Tween 20) and incubated with 50 μL of secondary antibodies: Anti-Rabbit (LI-COR Biosciences #926-32211) and Anti-Mouse (LI-COR Biosciences #68070) at 1:800 dilution in Odyssey blocking buffer with Tween at room temperature on a shaker for 2 hours (protected from light). The secondary antibody solution as removed and each plate was washed with PBST 3× times. Any liquid remaining was discarded and the plate was imaged using the Licor Odyssey machine according to the manufacturer's instruction, using a set focus length at 3 mm and both 800 nm and 700 nm filters. The GAPDH normalized scan values for each well were divided by the average of vehicle wells to get the % of pERK inhibition. The IC50 values were then calculated with the Graph pad Prism software.

| SMILES | Ki [1] [nM] | IC50 (pERK in MKN1 cells) [nM] |
| --- | --- | --- |
| Cc1c(C#N)cccc1[C@@H](C)Nc1nnc(C)c2cnc(N(C)[C@H]3CCN(C)C3)cc12 [Example 1-5, 2-methyl-3-((R)-1-((4-methyl-7-(methyl((S)-1-methylpyrrolidin-3-yl)amino)pyrido[3,4-d]pyridazin-1-yl)amino)ethyl)benzonitrile] | 0.683 | 57.2 |
| Cc1c(C#N)cccc1[C@@H](C)Nc1nnc(C)c2cnc(N(C)[C@@H]3CCN(C)C3)cc12 [Example 1-6, 2-methyl-3-((R)-1-((4-methyl-7-(methyl((R)-1-methylpyrrolidin-3-yl)amino)pyrido[3,4-d]pyridazin-1-yl)amino)ethyl)benzonitrile] | 1.56 | 41.6 |
| CCN1CC2(C1)CN(c1cc3c(N[C@H](C)c4cccc(C#N)c4C)nnc(C)c3cn1)C2 [Example 1-7, (R)-3-(1-((7-(6-ethyl-2,6-diazaspiro[3.3]heptan-2-yl)-4-methylpyrido[3,4-d]pyridazin-1-yl)amino)ethyl)-2-methylbenzonitrile] | 0.378 | 39.4 |
| Cc1c(C#N)cccc1[C@@H](C)Nc1nnc(C)c2cnc(N3CC[C@@H](N)C3)cc12 [Example 1-8, 3-((R)-1-((7-((R)-3-aminopyrrolidin-1-yl)-4-methylpyrido[3,4-d]pyridazin-1-yl)amino)ethyl)-2-methylbenzonitrile] | 1.54 | 274 |
| Cc1c(C#N)cccc1[C@@H](C)Nc1nnc(C)c2cnc(N3CC[C@H](N)C3)cc12 [Example 1-9, 3-((R)-1-((7-((S)-3-aminopyrrolidin-1-yl)-4-methylpyrido[3,4-d]pyridazin-1-yl)amino)ethyl)-2-methylbenzonitrile] | 1.66 | 396 |
| Cc1c(C#N)cccc1[C@@H](C)Nc1nnc(C)c2cnc(N3CC4(CNC4)C3)cc12 [Example 1-10, (R)-2-methyl-3-(1-((4-methyl-7-(2,6-diazaspiro[3.3]heptan-2-yl)pyrido[3,4-d]pyridazin-1-yl)amino)ethyl)benzonitrile] | 0.541 | 3280 |
| Cc1c(C#N)cccc1[C@@H](C)Nc1nnc(C)c2cnc(N3CCN(C)[C@@H](C)C3)cc12 [Example 1-11, 3-((R)-1-((7-((S)-3,4-dimethylpiperazin-1-yl)-4-methylpyrido[3,4-d]pyridazin-1-yl)amino)ethyl)-2-methylbenzonitrile] | 1.62 | 72.5 |
| Cc1c(C#N)cccc1[C@@H](C)Nc1nnc(C)c2cnc(N3CCN(C)[C@H](C)C3)cc12 [Example 1-12, 3-((R)-1-((7-((R)-3,4-dimethylpiperazin-1-yl)-4-methylpyrido[3,4-d]pyridazin-1-yl)amino)ethyl)-2-methylbenzonitrile] | 1.01 | 56.6 |
| CCN1CCN(c2cc3c(N[C@H](C)c4cccc(C#N)c4C)nnc(C)c3cn2)C[C@H]1C [Example 1-13, 3-((R)-1-((7-((R)-4-ethyl-3-methylpiperazin-1-yl)-4-methylpyrido[3,4-d]pyridazin-1-yl)amino)ethyl)-2-methylbenzonitrile] | 0.82 | 47.3 |
| CCN1CCN(c2cc3c(N[C@H](C)c4cccc(C#N)c4C)nnc(C)c3cn2)[C@@H](C)C1 [Example 1-14, 3-((R)-1-((7-((S)-4-ethyl-2-methylpiperazin-1-yl)-4-methylpyrido[3,4-d]pyridazin-1-yl)amino)ethyl)-2-methylbenzonitrile] | 0.788 | 53.9 |
| CCN1CCN(c2cc3c(N[C@H](C)c4cccc(C#N)c4C)nnc(C)c3cn2)[C@H](C)C1 [Example 1-15, 3-((R)-1-((7-((R)-4-ethyl-2-methylpiperazin-1-yl)-4-methylpyrido[3,4-d]pyridazin-1-yl)amino)ethyl)-2-methylbenzonitrile] | 0.789 | 63.5 |
| Cc1c(C#N)cccc1[C@@H](C)Nc1nnc(C)c2cnc(N3CCN(C)C[C@H]3C)cc12 [Example 1-16, 3-((R)-1-((7-((R)-2,4-dimethylpiperazin-1-yl)-4-methylpyrido[3,4-d]pyridazin-1-yl)amino)ethyl)-2-methylbenzonitrile] | 0.526 | 34.5 |
| Cc1c(C#N)cccc1[C@@H](C)Nc1nnc(C)c2cnc(N3CCN(C)C[C@@H]3C)cc12 [Example 1-17, 3-((R)-1-((7-((S)-2,4-dimethylpiperazin-1-yl)-4-methylpyrido[3,4-d]pyridazin-1-yl)amino)ethyl)-2-methylbenzonitrile] | 0.74 | 42.6 |
| CCN1CCN(c2cc3c(N[C@H](C)c4cccc(C#N)c4C)nnc(C)c3cn2)C[C@@H]1C [Example 1-18, 3-((R)-1-((7-((S)-4-ethyl-3-methylpiperazin-1-yl)-4-methylpyrido[3,4-d]pyridazin-1-yl)amino)ethyl)-2-methylbenzonitrile] | 0.836 | 35.9 |
| Cc1c(C#N)cccc1[C@@H](C)Nc1nnc(C)c2cnc(N3CCC34CN(C)C4)cc12 [Example 1-19, (R)-2-methyl-3-(1-((4-methyl-7-(6-methyl-1,6-diazaspiro[3.3]heptan-1-yl)pyrido[3,4-d]pyridazin-1-yl)amino)ethyl)benzonitrile] | 0.601 | 32.2 |
| Cc1nnc(N[C@H](C)c2cccc(C(F)(F)F)c2F)c2cc(N3CCC34CN(C)C4)ncc12 [Example 1-20, (R)-N-(1-(2-fluoro-3-(trifluoromethyl)phenyl)ethyl)-4-methyl-7-(6-methyl-1,6-diazaspiro[3.3]heptan-1-yl)pyrido[3,4-d]pyridazin-1-amine] | 0.682 | 40.7 |
| Cc1nnc(N[C@H](C)c2cccc(C(F)(F)F)c2F)c2cc(N3CCCC34CN(C)C4)ncc12 [Example 1-21, (R)-N-(1-(2-fluoro-3-(trifluoromethyl)phenyl)ethyl)-4-methyl-7-(2-methyl-2,5-diazaspiro[3.4]octan-5-yl)pyrido[3,4-d]pyridazin-1-amine] | 0.249 | 25.5 |
| Cc1c(C#N)cccc1[C@@H](C)Nc1nnc(C)c2cnc(N3CCCC34CN(C)C4)cc12 [Example 1-22, (R)-2-methyl-3-(1-((4-methyl-7-(2-methyl-2,5-diazaspiro[3.4]octan-5-yl)pyrido[3,4-d]pyridazin-1-yl)amino)ethyl)benzonitrile] | 0.248 | 33.2 |
| Cc1nnc(N[C@H](C)c2cccc(C(F)(F)F)c2F)c2cc(N3CC4(CN(C)C4)C3)ncc12 [Example 1-23, (R)-N-(1-(2-fluoro-3-(trifluoromethyl)phenyl)ethyl)-4-methyl-7-(6-methyl-2,6-diazaspiro[3.3]heptan-2-yl)pyrido[3,4-d]pyridazin-1-amine] | 0.21 | 59.1 |
| Cc1c(C#N)cccc1[C@@H](C)Nc1nnc(C)c2cnc(N3CC4(CN(C)C4)C3)cc12 [Example 1-24, (R)-2-methyl-3-(1-((4-methyl-7-(6-methyl-2,6-diazaspiro[3.3]heptan-2-yl)pyrido[3,4-d]pyridazin-1-yl)amino)ethyl)benzonitrile] | 0.353 | 40.3 |
| Cc1c(C#N)cccc1[C@@H](C)Nc1nnc(C)c2cnc(N3CCC4(CN(C)C4)C3)cc12 [Example 1-25, (R)-2-methyl-3-(1-((4-methyl-7-(2-methyl-2,6-diazaspiro[3.4]octan-6-yl)pyrido[3,4-d]pyridazin-1-yl)amino)ethyl)benzonitrile] | 0.492 | 68.6 |
